In one series the target is T1, TYK2-JH2 domain (Homo sapiens, UniProt P29597).
T1 construct: JAK1-JH2 domain or TYK2-JH2 domain enzyme
As to the kind of experiment: Binding activity test for TYK2 JH2 domain (Tb-antibody/tracer FRET). The settings on record: for JAK1/TYK2 selectivity: ratio of JAK1 JH2 to TYK2 JH2 binding IC50; for pIC50: read-out: TYK2 JH2 Binding IC50.

A further series has as its target T2, JAK1-JH2 domain (Homo sapiens, UniProt P23458).
T2 construct: JAK1-JH2 domain or TYK2-JH2 domain enzyme
As to the kind of experiment: Binding activity test for JAK1 JH2 domain (Tb-antibody/tracer FRET). The settings on record: for pIC50: read-out: JAK1 JH2 Binding IC50. How it is done:
Binding Activity test for JH2 domain of JAK and TYK2
75 nL DMSO for high control and low control.
For low control, add 5 μL/well assay buffer. […] After enzyme system prepared, add 5 μL of Tb-antibody solution into each wells of assay plate. […] After Tb-antibody added, also add 5 μL of tracer into the assay plate. […] Incubate for 60 mins at 25° C. firstly and then continue to incubate the plate at 4° C. overnight. Read by envision in FRET mode. The Luminescence value was recorded by a multi-label reader Envision (PerkinElmer). Inhibition Rate was calculated relative to vehicle (DMSO) treated control wells using following formula:
wherein • RLU_compound=the relative light unit of cells treated with test compounds • RLU_low control=the relative light unit of medium with DMSO only • RLU_high control=the relative light unit of cells treated with DMSO only

Series [1] can be described thus: Microsomal metabolic stability assay. The settings on record: human, liver microsomes, pH 7.4, human liver microsomes 0.5 mg/mL; for microsomal CLint at 1 µM: read-out: Human LM Clint; for half-life at 1 µM: read-out: Human LM T½. The series is classed as in vitro ADME, human. How it is done: Microsomal Metabolic Stability Assay
Microsomes were pre-incubated with test compound or control compounds for 5 min at 37° C. in 100 mM potassium phosphate buffer, pH 7.4, 1.0 mM EDTA. The reaction was initiated by addition of 15 μL of the NADPH regenerating system to 30 μL of each incubation mixture per time point. The final incubation condition was composed of 0.5 mg/mL microsomal protein, 1 μM test article/positive control, 2 mM NADPH. The 0-minute samples were prepared by addition of a 30 μL aliquot of each incubation mixture to 135 μL quench reagent to precipitate proteins. And then a 15 μL aliquot of the NADPH regenerating system was added. At 5, 15, 30 and 45 minutes, the reaction will be stopped by the addition of cold acetonitrile solution containing internal standard. The samples taken at all time points were centrifuged at 5000×g for 15 minutes. 50 μL of supernatant are taken into 96-well assay plates pre-added with 50 μL ultrapure water, and then analyzed by LC/MS/MS.
Concentrations of test articles, control compounds in the samples were determined by using LC/MS/MS method. Plotting of the chromatograms and peak area integrations are carried out by Analyst (AB Sciex).
In the determination of the in vitro elimination constant (ke) of the control compounds, the analyte/internal standard peak area ratios will be converted to percentage remaining (% Remaining) with the following equation:
The CLint of microsomes was calculated using the formula: CLint (mic)=0.693/T1/2/mg microsome protein per mL. The slope was measured by the natural logarithm of the percentage of the residual compound and time, T1/2 was calculated according to the following formula.

Structures are written as SMILES. pIC50: −log10 of the molar value. Like-named read-outs stand apart in the source and are kept apart here. A value given as a limit tells only on which side of the number the result lay.

T1 sequence (P29597 589-875 limits assumed): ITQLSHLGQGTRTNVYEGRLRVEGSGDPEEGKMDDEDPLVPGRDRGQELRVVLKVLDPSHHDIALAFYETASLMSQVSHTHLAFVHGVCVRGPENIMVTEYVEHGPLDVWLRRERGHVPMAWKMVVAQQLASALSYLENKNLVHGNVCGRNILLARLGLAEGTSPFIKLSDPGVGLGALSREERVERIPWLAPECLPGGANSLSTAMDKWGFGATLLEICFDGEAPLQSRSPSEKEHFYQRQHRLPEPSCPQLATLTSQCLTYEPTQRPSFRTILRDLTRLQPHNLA
T2 sequence (P23458 583-855 limits assumed): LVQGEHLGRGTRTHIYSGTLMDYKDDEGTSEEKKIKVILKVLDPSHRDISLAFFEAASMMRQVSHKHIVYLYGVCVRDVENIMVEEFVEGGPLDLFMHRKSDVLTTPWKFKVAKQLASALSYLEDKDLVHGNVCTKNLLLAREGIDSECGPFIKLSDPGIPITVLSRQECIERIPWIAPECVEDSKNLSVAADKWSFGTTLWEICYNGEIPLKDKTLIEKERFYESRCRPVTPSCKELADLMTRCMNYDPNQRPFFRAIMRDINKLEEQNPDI

Turning to `COC(=O)c1cnc(NC(=O)C2CC2)cc1Nc1ncc2cnn(CC(C)(F)F)c2c1OC` [Example 26, Methyl 6-(cyclopropanecarboxamido)-4-((1-(2,2-difluoropropyl)-7-methoxy-1H-pyrazolo[4,3-c]pyridin-6-yl)amino)nicotinate], on TYK2-JH2 domain, the JAK1/TYK2 selectivity stood at 443.32. Further, the pIC50 (as a rule, −log10 of the IC50, conventionally taken in molar units) on TYK2-JH2 domain is 9.59; on JAK1-JH2 domain it was 6.94.

For `[2H]C([2H])([2H])NC(=O)c1cnc(NC(=O)[C@H]2C[C@H]2F)cc1Nc1ncc2cnn(CC(C)(F)F)c2c1OC` [Example 11, 4-((1-(2,2-Difluoropropyl)-7-methoxy-1H-pyrazolo[4,3-c]pyridin-6-yl)amino)-6-((1R,2R)-2-fluorocyclopropane-1-carboxamido)-N-(methyl-d3)nicotinamide], at TYK2-JH2 domain, the JAK1/TYK2 selectivity was found to be 227.16 and the pIC50 was 9.49. Further, the pIC50 at JAK1-JH2 domain was 7.13. Further, in series [1], the microsomal CLint at 1 µM stood at 2.86 µL/min/mg and the half-life at 1 µM stood at 485 min.

For the compound `[2H]C([2H])([2H])NC(=O)c1cnc(NC(=O)NC)cc1Nc1ncc2cnn(CC(C)(F)F)c2c1OC` [Example 33, 4-((1-(2,2-Difluoropropyl)-7-methoxy-1H-pyrazolo[4,3-c]pyridin-6-yl)amino)-N-(methyl-d3)-6-(3-methylureido)nicotinamide], at TYK2-JH2 domain, the JAK1/TYK2 selectivity is more than 139.8 and the pIC50 is 8.67. Further, on JAK1-JH2 domain, the pIC50 was less than 6.53.

Turning to `[2H]C([2H])([2H])NC(=O)c1cnc(NC(=O)[C@@H]2C[C@@H]2F)cc1Nc1ncn2ncc(C(C)C(F)(F)F)c2c1OC` (stereo partly drawn) [Example 13, 6-((1S,2S)-2-fluorocyclopropane-1-carboxamido)-4-((4-methoxy-3-(1,1,1-trifluoropropan-2-yl)pyrazolo[1,5-c]pyrimidin-5-yl)amino)-N-(methyl-d3)nicotinamide], on TYK2-JH2 domain, the JAK1/TYK2 selectivity is reported as more than 175.38 and the pIC50 was 8.77. Besides, on JAK1-JH2 domain, the pIC50 was less than 6.53. Moreover, in series [1], the microsomal CLint at 1 µM was 25.4 µL/min/mg and the half-life at 1 µM turned out to be 54.5 min.

As for `CCC(=O)c1cnc(NC(=O)C2CC2)cc1Nc1ccc2cn[nH]c2c1OC` [Example 34, N-(4-((7-methoxy-1H-indazol-6-yl)amino)-5-propionylpyridin-2-yl)cyclopropanecarboxamide], on TYK2-JH2 domain, the JAK1/TYK2 selectivity worked out at 8.0 and the pIC50 was 8.40. Moreover, the pIC50 at JAK1-JH2 domain was 7.50. Also, in series [1], the microsomal CLint at 1 µM turned out to be 480 µL/min/mg and the half-life at 1 µM was 2.89 min.

Consider `COC(=O)c1cnc(NC(=O)C2CC2)cc1Nc1ncn2ncc(C#N)c2c1OC` [Example 19, Methyl 4-((3-cyano-4-methoxypyrazolo[1,5-c]pyrimidin-5-yl)amino)-6-(cyclopropanecarboxamido)nicotinate], for which the JAK1/TYK2 selectivity on TYK2-JH2 domain is reported as 13.51. The pIC50 on TYK2-JH2 domain is 8.79; at JAK1-JH2 domain, 7.66.

For `[2H]C([2H])([2H])NC(=O)c1cnc(NC(=O)C2CC2)cc1Nc1ncc2ncn(CC(F)(F)F)c2c1OC` [Example 25, 6-(Cyclopropanecarboxamido)-4-((7-methoxy-1-(2,2,2-trifluoroethyl)-1H-imidazo[4,5-c]pyridin-6-yl)amino)-N-(methyl-d3)nicotinamide], at TYK2-JH2 domain, the JAK1/TYK2 selectivity was found to be 268.51 and the pIC50 is 9.76. For the same compound, the negative-log IC50 (pIC50) at JAK1-JH2 domain was 7.33.

Consider `[2H]C([2H])([2H])NC(=O)c1cnc(Nc2ccc(N3CCOCC3)cn2)cc1Nc1ccn2ncc(C#N)c2c1OC` [Example 6, 4-((3-Cyano-4-methoxypyrazolo[1,5-a]pyridin-5-yl)amino)-N-(methyl-d3)-6-((5-morpholinopyridin-2-yl)amino)nicotinamide], for which, on TYK2-JH2 domain, the JAK1/TYK2 selectivity was 4.48 and the pIC50 is 9.80. On JAK1-JH2 domain, the pIC50 is 9.15. In addition, in series [1], the microsomal CLint at 1 µM came out at 28.4 µL/min/mg and the half-life at 1 µM stood at 48.8 min.

As to `[2H]C([2H])([2H])NC(=O)c1cnc(NC(=O)C2CC2)cc1Nc1ccc2ncn(CC(C)(F)F)c2c1OC` [Example 31, 6-(Cyclopropanecarboxamido)-4-((1-(2,2-difluoropropyl)-7-methoxy-1H-benzo[d]imidazol-6-yl)amino)-N-(methyl-d3)nicotinamide], on TYK2-JH2 domain, the JAK1/TYK2 selectivity was 69.3 and the negative-log IC50 (pIC50) is 9.52. For the same compound, the pIC50 at JAK1-JH2 domain is 7.68.

Consider `[2H]C([2H])([2H])NC(=O)c1cnc(NC(=O)[C@@H]2C[C@@H]2F)cc1Nc1ncc2cnn(CC(C)(F)F)c2c1OC` [Example 8, 4-((1-(2,2-Difluoropropyl)-7-methoxy-1H-pyrazolo[4,3-c]pyridin-6-yl)amino)-6-((1S,2S)-2-fluorocyclopropane-1-carboxamido)-N-(methyl-d3)nicotinamide], for which, on TYK2-JH2 domain, the JAK1/TYK2 selectivity was determined as 561.99 and the pIC50 was 9.54. Also, the pIC50 on JAK1-JH2 domain was 6.79.

Turning to `[2H]C([2H])([2H])NC(=O)c1cnc(NC(=O)NCC)cc1Nc1ncc2cnn(CC(C)(F)F)c2c1OC` [Example 32, 4-((1-(2,2-Difluoropropyl)-7-methoxy-1H-pyrazolo[4,3-c]pyridin-6-yl)amino)-6-(3-ethylureido)-N-(methyl-d3)nicotinamide], at TYK2-JH2 domain, the JAK1/TYK2 selectivity is listed as more than 175.4 and the pIC50 is 8.77. Also, the pIC50 at JAK1-JH2 domain was less than 6.53.

Take `[2H]C([2H])([2H])NC(=O)c1cnc(NC(=O)C2CC2)cc1Nc1ncc2cnn(COCC[Si](C)(C)C)c2c1OC` [Example 1, 6-(Cyclopropanecarboxamido)-4-((7-methoxy-1-((2-(trimethylsilyl)ethoxy)methyl)-1H-pyrazolo[4,3-c]pyridin-6-yl)amino)-N-(methyl-d3)nicotinamide]: the IC50 – broadly, the concentration at which inhibition is half-maximal – at TYK2-JH2 domain (TYK2 JH2 Binding IC50(nM)) was 9.31 nM; on JAK1-JH2 domain (JAK1 JH2 Binding IC50(nM)) it was more than 298 nM. The JAK1/TYK2 selectivity on TYK2-JH2 domain was more than 32.07.

Regarding `[2H]C([2H])([2H])NC(=O)c1cnc(NC(=O)C2CC2)cc1Nc1ncn2ncc(C(O)C(F)(F)F)c2c1OC` (stereo not drawn) [Example 30, 6-(Cyclopropanecarboxamido)-4-((4-methoxy-3-(2,2,2-trifluoro-1-hydroxyethyl)pyrazolo[1,5-c]pyrimidin-5-yl)amino)-N-(methyl-d3)nicotinamide], on TYK2-JH2 domain, the JAK1/TYK2 selectivity is reported as 822.4 and the pIC50 was 9.87. Moreover, the pIC50 on JAK1-JH2 domain is 6.96.

With `[2H]C([2H])([2H])NC(=O)c1cnc(Nc2ccc(N3CCOCC3)cn2)nc1Nc1ccn2ncc(C#N)c2c1OC` [Example 7, 4-((3-Cyano-4-methoxypyrazolo[1,5-a]pyridin-5-yl)amino)-N-(methyl-d)-2-((5-morpholinopyridin-2-yl)amino)pyrimidine-5-carboxamide], on TYK2-JH2 domain, the JAK1/TYK2 selectivity was determined as 26.60 and the pIC50 is 9.39. Moreover, the pIC50 at JAK1-JH2 domain was 7.97. Further, in series [1], the microsomal CLint at 1 µM amounted to 28.1 µL/min/mg and the half-life at 1 µM is 49.3 min.

With `[2H]C([2H])([2H])NC(=O)c1cnc(Nc2ccc(F)cn2)cc1Nc1ncc2cnn(CC(C)(F)F)c2c1OC` [Example 21, 4-((1-(2,2-Difluoropropyl)-7-methoxy-1H-pyrazolo[4,3-c]pyridin-6-yl)amino)-6-((5-fluoropyridin-2-yl)amino)-N-(methyl-d3)nicotinamide], at TYK2-JH2 domain, the JAK1/TYK2 selectivity turned out to be 353.07 and the pIC50 is 9.40. The pIC50 at JAK1-JH2 domain is 6.85. Besides, in series [1], the microsomal CLint at 1 µM is 16.3 µL/min/mg and the half-life at 1 µM is 84.8 min.

The values above are taken from US20260284066A1, “TYK2 INHIBITORS AND COMPOSITIONS AND METHODS THEREOF” (LYNK PHARMACEUTICALS CO. LTD., priority 2023, published 2026).
